Test systems include COLO 205 colon; HT29 colon; K-562 leukemia; OVCAR-5 ovarian; RPMI-8226 leukemia; SF-268 CNS; SN12C renal; SNB-19 CNS; TK-10 renal; UACC-62 melanoma.
Common to all, as to assay: growth of human tumour cells (NCI), 48 h

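Five compound concentrations were applied to cells in 96-well plates for 48 hours; endpoints were derived by simple linear interpolation of the resulting dose-response curve. GI50 is the concentration that inhibits growth by half. Definition used: TGI = concentration required for complete inhibition of growth.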

For the compound `COc1cc2c3c(c1OC)C(=O)C=C3N(S(=O)(=O)c1ccc(C)cc1)CC2`, the TGI in the assay with COLO 205 colon, with HT29 colon, in the assay on K-562 leukemia, in the assay on OVCAR-5 ovarian, in the assay on RPMI-8226 leukemia and with SF-268 CNS was greater than 100 µM each time. Further, the TGI in the assay on SN12C renal, in the assay on SNB-19 CNS, in the assay with TK-10 renal and with UACC-62 melanoma was greater than 100 µM in each case.
For the compound `COc1ccc(-c2nn3ncccc3c2-c2ccnc(Nc3ccc4c(c3)OCCO4)n2)cc1`, the GI50 with COLO 205 colon was 13.1 µM; with HT29 colon, 4.29 µM; in the assay with K-562 leukemia it was 9.06 µM; in the assay on OVCAR-5 ovarian it was 5.72 µM; in the assay on RPMI-8226 leukemia, 4.69 µM; in the assay with SF-268 CNS, 11.1 µM. The GI50 was 6.5 µM in the assay on SN12C renal, 16.3 µM in the assay with SNB-19 CNS, 4.54 µM with TK-10 renal and 5.23 µM with UACC-62 melanoma. The TGI with COLO 205 colon is greater than 25 µM; with HT29 colon, greater than 23.8 µM; in the assay on K-562 leukemia, greater than 25 µM; in the assay on OVCAR-5 ovarian, greater than 25 µM; with RPMI-8226 leukemia it was greater than 20.7 µM; in the assay with SF-268 CNS, greater than 25 µM. The TGI was greater than 25 µM with SN12C renal, greater than 25 µM in the assay on SNB-19 CNS, 18.5 µM in the assay on TK-10 renal and greater than 25 µM in the assay on UACC-62 melanoma.
With `O=c1[nH]c(=O)n(C2CC(O)C(CO)O2)cc1COCC(F)(F)F` (stereo not given), the TGI in the assay with COLO 205 colon, with HT29 colon, in the assay on K-562 leukemia, in the assay with OVCAR-5 ovarian, in the assay with RPMI-8226 leukemia and with SF-268 CNS was greater than 100 µM in each case. The TGI in the assay on SN12C renal, in the assay on SNB-19 CNS, in the assay with TK-10 renal and with UACC-62 melanoma was greater than 100 µM each time.
Consider `Cn1cc(C2=C(c3ccccc3C(F)(F)F)C(=O)NC2=O)c2ccccc21`, for which the GI50 in the assay on COLO 205 colon was 6.42 µM; with HT29 colon, 6.22 µM; in the assay with K-562 leukemia it was 8.82 µM; in the assay with OVCAR-5 ovarian it was greater than 24.1 µM; in the assay on RPMI-8226 leukemia it was 10.7 µM; in the assay with SF-268 CNS, 11.4 µM. Moreover, the GI50 was 9.73 µM in the assay on SN12C renal, 21 µM with SNB-19 CNS, 10.2 µM in the assay on TK-10 renal and 9.97 µM with UACC-62 melanoma. Besides, the TGI in the assay on COLO 205 colon, with HT29 colon, with K-562 leukemia, in the assay with OVCAR-5 ovarian, in the assay with RPMI-8226 leukemia and in the assay with SF-268 CNS was greater than 25 µM each time. Besides, the TGI in the assay with SN12C renal, in the assay with SNB-19 CNS, with TK-10 renal and with UACC-62 melanoma was greater than 25 µM throughout.
Consider `C/C(O)=C(\N=O)C(=O)NCc1ccccc1`, for which the TGI in the assay with COLO 205 colon, with HT29 colon, in the assay with K-562 leukemia, with OVCAR-5 ovarian, in the assay on RPMI-8226 leukemia and in the assay on SF-268 CNS was greater than 100 µM each time. Moreover, the TGI in the assay with SN12C renal, with SNB-19 CNS, in the assay with TK-10 renal and in the assay on UACC-62 melanoma was greater than 100 µM in each case.
For the compound `CCOc1ccc(C(C)=O)cc1NC(=O)c1cccc(-c2nnn(CC)n2)c1`, the GI50 in the assay on COLO 205 colon was 0.395 µM; with HT29 colon, 0.325 µM; in the assay on K-562 leukemia it was 0.454 µM; in the assay with OVCAR-5 ovarian, 9.34 µM; with RPMI-8226 leukemia, 1.22 µM; with SF-268 CNS, 0.901 µM. The GI50 was 5.8 µM in the assay with SN12C renal, 1.29 µM with SNB-19 CNS, 14.3 µM with TK-10 renal and 0.615 µM in the assay with UACC-62 melanoma. Besides, the TGI is 1.93 µM in the assay with COLO 205 colon; greater than 100 µM in the assay on HT29 colon; greater than 100 µM in the assay on K-562 leukemia; greater than 100 µM in the assay with OVCAR-5 ovarian; greater than 100 µM in the assay with RPMI-8226 leukemia; greater than 100 µM in the assay with SF-268 CNS. The TGI in the assay with SN12C renal is greater than 100 µM; in the assay with SNB-19 CNS, 76.6 µM; with TK-10 renal it was 50.3 µM; with UACC-62 melanoma it was 23.4 µM.
On to `COc1ccc2nc3cccc([N+](=O)[O-])c3c(NCCNCCN(C)C)c2c1`, for which the GI50 in the assay with COLO 205 colon was 0.0277 µM; with HT29 colon, 0.0238 µM; in the assay on K-562 leukemia, 0.0222 µM; in the assay on OVCAR-5 ovarian it was 0.0375 µM; in the assay on RPMI-8226 leukemia, 0.0208 µM; in the assay on SF-268 CNS, 0.161 µM. Moreover, the GI50 with SN12C renal is 0.141 µM; in the assay with SNB-19 CNS, 0.223 µM; in the assay with TK-10 renal, 0.194 µM; in the assay on UACC-62 melanoma, 0.121 µM. In addition, the TGI worked out at 0.0949 µM in the assay on COLO 205 colon; 0.143 µM in the assay on HT29 colon; 0.0987 µM in the assay with K-562 leukemia; 0.467 µM in the assay with OVCAR-5 ovarian; 0.106 µM with RPMI-8226 leukemia; 0.715 µM in the assay with SF-268 CNS. In addition, the TGI in the assay on SN12C renal came out at 0.592 µM; in the assay with SNB-19 CNS, 1.17 µM; in the assay on TK-10 renal, 1.09 µM; with UACC-62 melanoma it was 0.3 µM.
For the compound `COc1cccc2nc3c(C(=O)NCCN(C)C)cccc3nc12`, the TGI is 28.8 µM with COLO 205 colon; 32 µM in the assay with HT29 colon; 25.2 µM in the assay with K-562 leukemia; 42.4 µM in the assay with OVCAR-5 ovarian; greater than 63.8 µM in the assay with RPMI-8226 leukemia; 1.84 µM with SF-268 CNS. The TGI is greater than 72.3 µM with SN12C renal, greater than 91.8 µM in the assay on SNB-19 CNS, 61 µM in the assay with TK-10 renal and 27 µM in the assay on UACC-62 melanoma.
Take `Cc1c(C)c2c(c(C)c1OCC(=O)O)CC[C@@](C)(CCC[C@@H](C)CCC[C@@H](C)CCCC(C)C)O2`: the GI50 in the assay with COLO 205 colon was 53.4 µM; with HT29 colon, 58.3 µM; with K-562 leukemia, 62.5 µM; in the assay on OVCAR-5 ovarian it was 86.3 µM; in the assay with RPMI-8226 leukemia, 56.3 µM; in the assay on SF-268 CNS it was 87.8 µM. Besides, the GI50 with SN12C renal was 66.7 µM; with SNB-19 CNS, 95.8 µM; in the assay on TK-10 renal it was 85.6 µM; in the assay on UACC-62 melanoma, 61.1 µM. The TGI in the assay with COLO 205 colon is 144 µM; with HT29 colon it was 140 µM; with K-562 leukemia it was 287 µM; with OVCAR-5 ovarian, 155 µM; in the assay on RPMI-8226 leukemia, 214 µM; in the assay with SF-268 CNS, 196 µM. The TGI with SN12C renal stood at 176 µM; in the assay on SNB-19 CNS, 196 µM; in the assay on TK-10 renal it was 154 µM; in the assay with UACC-62 melanoma, 126 µM.

The values above are taken from PubChem BioAssay (NCI).
